Laboratory results from ChEMBL document CHEMBL3994622, “Design and synthesis of new RAF kinase-inhibiting antiproliferative quinoline derivatives. Part 2: Diarylurea derivatives” (Eur J Med Chem, 2017).

Experiments:
Assay type in all cases: functional
HCC 2998 = assay: Growth inhibition of human HCC2998 cells assessed as cell growth at 3 uM incubated for 48 hrs by sulforhodamine B assay relative to control; settings: HCC 2998, 48 h, read-out: Activity
SF-268 [1] = assay: Growth inhibition of human SF268 cells assessed as cell growth at 0.03 uM incubated for 48 hrs by sulforhodamine B assay relative to control; settings: SF-268, 48 h, read-out: Activity
CAKI-1 = assay: Growth inhibition of human Caki1 cells assessed as cell growth at 0.03 uM incubated for 48 hrs by sulforhodamine B assay relative to control; settings: CAKI-1, 48 h, read-out: Activity
SF-539 [2] = assay: Growth inhibition of human SF539 cells assessed as cell growth at 0.3 uM incubated for 48 hrs by sulforhodamine B assay relative to control; settings: SF-539, 48 h, read-out: Activity
OVCAR-4 [3] = assay: Growth inhibition of human OVCAR4 cells assessed as cell growth at 0.03 uM incubated for 48 hrs by sulforhodamine B assay relative to control; settings: OVCAR-4, 48 h, read-out: Activity
SF-539 [4] = assay: Growth inhibition of human SF539 cells assessed as cell growth at 0.003 uM incubated for 48 hrs by sulforhodamine B assay relative to control; settings: SF-539, 48 h, read-out: Activity
NCI/ADR-RES [5] = assay: Growth inhibition of human NCI/ADR-RES cells assessed as cell growth at 0.003 uM incubated for 48 hrs by sulforhodamine B assay relative to control; settings: read-out: Activity
BT-549 [6] = assay: Growth inhibition of human BT549 cells assessed as cell growth at 0.3 uM incubated for 48 hrs by sulforhodamine B assay relative to control; settings: BT-549, 48 h, read-out: Activity
HOP-62 = assay: Growth inhibition of human HOP62 cells assessed as cell growth at 0.03 uM incubated for 48 hrs by sulforhodamine B assay relative to control; settings: HOP-62, 48 h, read-out: Activity
DU-145 = assay: Growth inhibition of human DU145 cells assessed as cell growth at 30 uM incubated for 48 hrs by sulforhodamine B assay relative to control; settings: DU-145, 48 h, read-out: Activity
NCI-H322M [7] = assay: Growth inhibition of human NCI-H322M cells assessed as cell growth at 0.003 uM incubated for 48 hrs by sulforhodamine B assay relative to control; settings: read-out: Activity
SK-MEL-28 [8] = assay: Growth inhibition of human SK-MEL-28 cells assessed as cell growth at 0.03 uM incubated for 48 hrs by sulforhodamine B assay relative to control; settings: SK-MEL-28, 48 h, read-out: Activity
SNB-19 [9] = assay: Growth inhibition of human SNB19 cells assessed as cell growth at 0.01 uM incubated for 48 hrs by sulforhodamine B assay relative to control; settings: SNB-19, 48 h, read-out: Activity
HCT-116 = assay: Growth inhibition of human HCT116 cells assessed as cell growth at 1 uM incubated for 48 hrs by sulforhodamine B assay relative to control; settings: HCT-116, 48 h, read-out: Activity
SW-620 [10] = assay: Growth inhibition of human SW620 cells assessed as cell growth at 0.1 uM incubated for 48 hrs by sulforhodamine B assay relative to control; settings: SW-620, 48 h, read-out: Activity
NCI-H322M [11] = assay: Growth inhibition of human NCI-H322M cells assessed as cell growth at 100 uM incubated for 48 hrs by sulforhodamine B assay relative to control; settings: read-out: Activity
SK-MEL-28 [12] = assay: Growth inhibition of human SK-MEL-28 cells assessed as cell growth at 0.1 uM incubated for 48 hrs by sulforhodamine B assay relative to control; settings: SK-MEL-28, 48 h, read-out: Activity
SF-268 [13] = assay: Growth inhibition of human SF268 cells assessed as cell growth at 0.01 uM incubated for 48 hrs by sulforhodamine B assay relative to control; settings: SF-268, 48 h, read-out: Activity
OVCAR-4 [14] = assay: Growth inhibition of human OVCAR4 cells assessed as cell growth at 0.01 uM incubated for 48 hrs by sulforhodamine B assay relative to control; settings: OVCAR-4, 48 h, read-out: Activity
M14 = assay: Growth inhibition of human M14 cells assessed as cell growth at 100 uM incubated for 48 hrs by sulforhodamine B assay relative to control; settings: M14, 48 h, read-out: Activity
ACHN = assay: Growth inhibition of human ACHN cells assessed as cell growth at 1 uM incubated for 48 hrs by sulforhodamine B assay relative to control; settings: read-out: Activity
RXF 393 = assay: Growth inhibition of human RXF393 cells assessed as cell growth at 10 uM incubated for 48 hrs by sulforhodamine B assay relative to control; settings: RXF 393, 48 h, read-out: Activity
SK-OV-3 = assay: Growth inhibition of human SKOV3 cells assessed as cell growth at 10 uM incubated for 48 hrs by sulforhodamine B assay relative to control; settings: SK-OV-3, 48 h, read-out: Activity
BT-549 [15] = assay: Growth inhibition of human BT549 cells assessed as cell growth at 0.01 uM incubated for 48 hrs by sulforhodamine B assay relative to control; settings: BT-549, 48 h, read-out: Activity
UACC-257 = assay: Growth inhibition of human UACC257 cells assessed as cell growth at 100 uM incubated for 48 hrs by sulforhodamine B assay relative to control; settings: UACC-257, 48 h, read-out: Activity
SNB-19 [16] = assay: Growth inhibition of human SNB19 cells assessed as cell growth at 10 uM incubated for 48 hrs by sulforhodamine B assay relative to control; settings: SNB-19, 48 h, read-out: Activity
NCI/ADR-RES [17] = assay: Growth inhibition of human NCI/ADR-RES cells assessed as cell growth at 0.01 uM incubated for 48 hrs by sulforhodamine B assay relative to control; settings: read-out: Activity
NCI-H460 = assay: Growth inhibition of human NCI-H460 cells assessed as cell growth at 100 uM incubated for 48 hrs by sulforhodamine B assay relative to control; settings: NCI-H460, 48 h, read-out: Activity
SNB-75 = assay: Growth inhibition of human SNB75 cells assessed as cell growth at 100 uM incubated for 48 hrs by sulforhodamine B assay relative to control; settings: SNB-75, 48 h, read-out: Activity
OVCAR-3 = assay: Growth inhibition of human OVCAR3 cells assessed as cell growth at 1 uM incubated for 48 hrs by sulforhodamine B assay relative to control; settings: OVCAR-3, 48 h, read-out: Activity
CCRF-CEM = assay: Growth inhibition of human CCRF-CEM cells assessed as cell growth at 100 uM incubated for 48 hrs by sulforhodamine B assay relative to control; settings: read-out: Activity
HCT-15 = assay: Growth inhibition of human HCT15 cells assessed as cell growth at 0.1 uM incubated for 48 hrs by sulforhodamine B assay relative to control; settings: HCT-15, 48 h, read-out: Activity
U-251 = assay: Growth inhibition of human U251 cells assessed as cell growth at 100 uM incubated for 48 hrs by sulforhodamine B assay relative to control; settings: U-251, 48 h, read-out: Activity
SN12C = assay: Growth inhibition of human SN12C cells assessed as cell growth at 0.01 uM incubated for 48 hrs by sulforhodamine B assay relative to control; settings: read-out: Activity
SW-620 [18] = assay: Growth inhibition of human SW620 cells assessed as cell growth at 1 uM incubated for 48 hrs by sulforhodamine B assay relative to control; settings: SW-620, 48 h, read-out: Activity

| Structure (SMILES) | growth at 3 µM (HCC 2998) | growth at 0.03 µM (SF-268 [1]) | growth at 0.03 µM (CAKI-1) | growth at 0.3 µM (SF-539 [2]) | growth at 0.03 µM (OVCAR-4 [3]) | growth at 0.003 µM (SF-539 [4]) | growth at 0.003 µM (NCI/ADR-RES [5]) | growth at 0.3 µM (BT-549 [6]) | growth at 0.03 µM (HOP-62) | growth at 30 µM (DU-145) | growth at 0.003 µM (NCI-H322M [7]) | growth at 0.03 µM (SK-MEL-28 [8]) | growth at 0.01 µM (SNB-19 [9]) | growth at 1 µM (HCT-116) | growth at 0.1 µM (SW-620 [10]) | growth at 100 µM (NCI-H322M [11]) | growth at 0.1 µM (SK-MEL-28 [12]) | growth at 0.01 µM (SF-268 [13]) | growth at 0.01 µM (OVCAR-4 [14]) | growth at 100 µM (M14) | also measured |
| --- | --- | --- | --- | --- | --- | --- | --- | --- | --- | --- | --- | --- | --- | --- | --- | --- | --- | --- | --- | --- | --- |
| COc1cc2cc(Oc3ccc(NC(=O)Nc4ccc(Cl)c(C(F)(F)F)c4)cc3)c(C)nc2cc1OC | 29% | 91% | 96% | 107% | 96% | 108% | 104% | 85% | 106% | -70% | 91% | 98% | – | – | – | – | – | – | – | – | – |
| COc1cc2cc(Oc3ccc(NC(=O)Nc4ccc(Cl)c(Cl)c4)cc3)c(C)nc2cc1OC | – | – | – | – | – | – | – | – | – | – | – | – | 94% | 76% | 101% | -13% | 91% | 103% | 95% | -94% | growth at 1 µM (ACHN): 91%; growth at 10 µM (RXF 393): 19%; growth at 10 µM (SK-OV-3): 41%; growth at 0.01 µM (BT-549 [15]): 78%; growth at 100 µM (UACC-257): -92%; growth at 10 µM (SNB-19 [16]): 25%; growth at 0.01 µM (NCI/ADR-RES [17]): 101%; growth at 100 µM (NCI-H460): -76%; growth at 100 µM (SNB-75): -59%; growth at 1 µM (OVCAR-3): 94%; growth at 100 µM (CCRF-CEM): -26%; growth at 0.1 µM (HCT-15): 102%; growth at 100 µM (U-251): -100%; growth at 0.01 µM (SN12C): 93%; growth at 1 µM (SW-620 [18]): 107% |
| Cc1nc2cc(O)c(O)cc2cc1Oc1ccc(NC(=O)Nc2ccc(Cl)c(Cl)c2)cc1 | 96% | 104% | 94% | 99% | 98% | 102% | 100% | 92% | 105% | -10% | 103% | 87% | – | – | – | – | – | – | – | – | – |
| COc1cc2cc(Oc3ccc(NC(=O)Nc4cc(C(F)(F)F)cc(C(F)(F)F)c4)cc3)c(C)nc2cc1OC | – | – | – | – | – | – | – | – | – | – | – | – | 95% | 33% | 100% | -91% | 102% | 97% | 85% | -66% | growth at 1 µM (ACHN): 17%; growth at 10 µM (RXF 393): -44%; growth at 10 µM (SK-OV-3): -75%; growth at 0.01 µM (BT-549 [15]): 91%; growth at 100 µM (UACC-257): -78%; growth at 10 µM (SNB-19 [16]): -79%; growth at 0.01 µM (NCI/ADR-RES [17]): 101%; growth at 100 µM (NCI-H460): -73%; growth at 100 µM (SNB-75): -44%; growth at 1 µM (OVCAR-3): 27%; growth at 100 µM (CCRF-CEM): -40%; growth at 0.1 µM (HCT-15): 94%; growth at 100 µM (U-251): -83%; growth at 0.01 µM (SN12C): 96%; growth at 1 µM (SW-620 [18]): 81% |
